In patent US20240376120A1, “CAMPTOTHECIN COMPOUND, PREPARATION METHOD THEREFOR AND USE THEREOF” (priority 2021, published 2024):
Like-named read-outs stand apart in the source and are kept apart here.

Legend:
Assay type in all cases: cell-based
[1] = test system: MDA-MB-435s cells (human melanoma cells); test: MDA-MB-435s cell proliferation inhibitory assay (CellTiter-Glo); settings: Homo sapiens, MDA-MB-435S
Procedure: (§1) • 1). […] Resuspend an appropriate amount of cell suspension to 3000 cells/100 μL according to the count, mixed well and then put the corresponding number of cells into a 96-well plate by pipette. • 3). Each hole of the edge was sealed with 100 μL DPBS and put into an incubator for culture. • 4). Day 1 drug addition: Prepare the storage solution of the compound to be tested 1 hour in advance. 24 h after plating, the culture medium was gradiently diluted to a concentration twice the final concentration of each group. Take out the plated cells from the incubator and add 100 μL of the corresponding 2-fold concentration medium to each well by pipette. • 5). Day 1 detected: Take out an appropriate amount of CTG 1 h in advance and the plate was allowed to equilibrate at room temperature for 30 min. 100 μL of CTG was added to each well and shaken for 5 mins, and then standed in the dark for 5 mins, the luminescence value was detected by ELISA. • 6). Day 4 detection: Take an appropriate amount of CTG 1 h in advance and rewarm it at room temperature in the dark. At the same time, take out the plate to be tested from the incubator and leave it to equilibrate at room temperature for 30 minutes; 72 h after adding the drug, 100 μL of culture medium was sucked out with pipette carefully from each cell well, and 100 μL of CTG was added. The mixture was shaken for 5 min, and after equilibration in the dark for 5 min, the luminescence value was detected with ELISA. • 7). Analyze data and write detailed experimental records.
Collect data and convert it into survival rate: Inhibition rate (%)=(100−(OD value of compound−OD value on the first day)/(OD value of control well-OD value on the first day))×100%
(§2) Input the compound into graphpad prism to obtain the corresponding IC50 value.

[2] = test system: MCF-7 cells (human breast cancer cells); test: MCF-7 cell proliferation inhibitory assay (CellTiter-Glo); settings: Homo sapiens
Procedure: • 1). […] Resuspend an appropriate amount of cell suspension to 4000 cells/100 μL according to the count, mixed well and then put the corresponding number of cells into a 96-well plate by pipette. • 3). Each hole of the edge was sealed with 100 μL DPBS and put into an incubator for culture. • 4). Day 1 drug addition: Prepare the storage solution of the compound to be tested 1 hour in advance. 24 h after plating, the culture medium was gradiently diluted to a concentration twice the final concentration of each group. Take out the plated cells from the incubator and add 100 μL of the corresponding 2-fold concentration medium to each well by pipette.
Day 1 detected: Take out the plate to be tested and an appropriate amount of CTG in advance and rewarm it at room temperature in the dark. 50 μL of CTG was added to each well at 24 h. Shake with the oscillator for 5 minutes, and after balancing in the dark for 5 minutes, detect the luminescence value with a microplate reader; The mixture was shaken for 5 min, and after equilibration in the dark for 5 min, the luminescence value was detected with ELISA. • 6). Day 4 detection: Take an appropriate amount of CTG 1 h in advance and rewarm it at room temperature in the dark. At the same time, take out the plate to be tested from the incubator and leave it to equilibrate at room temperature for 30 minutes; 72 h after adding the drug, 100 μL of culture medium was sucked out with pipette carefully from each cell well, and 50 μL of CTG was added. The mixture was shaken for 5 min, and after equilibration in the dark for 5 min, the luminescence value was detected with ELISA analyzer. • 7). Data analysis and processed.
Collect data and convert it into survival rate: Inhibition rate (%)=(100−(OD value of compound-OD value on the first day)/(OD value of control well-OD value on the first day))×100%
as §2

[3] = test system: MDA-MB-231 cells (human breast cancer cells); test: MDA-MB-231 cell proliferation inhibitory assay (CellTiter-Glo); settings: Homo sapiens
Procedure: as §1, §2

[4] = 72 h, read-out: Proliferation inhibition IC50
[5] = MCF7, 72 h, read-out: Proliferation inhibition IC50
[6] = MDA-MB-231, 72 h, read-out: Proliferation inhibition IC50

| SMILES | IC50 [1, 4] | IC50 [2, 5] | IC50 [3, 6] | IC50 ([1]; read-out: MDA-MB-435s Proliferation inhibition IC50) | IC50 ([2]; MCF7, read-out: MCF-7 Proliferation inhibition IC50) | IC50 ([3]; MDA-MB-231, read-out: MDA-MB-231 Proliferation inhibition IC50) |
| --- | --- | --- | --- | --- | --- | --- |
| [2H]C([2H])([2H])c1cc2c([C@H](C)N)c3c(nc2cc1F)-c1cc2c(c(=O)n1C3)COC(=O)[C@]2(O)CC [Example 23] | 0.76 nM | 2.5 nM | 7.7 nM |  |  |  |
| CC[C@@]1(O)C(=O)OCc2c1cc1n(c2=O)Cc2c-1nc1cc(F)c(C)cc1c2[C@@H](C)O [Example 12d] | 1.6 nM | 6.8 nM | 12.3 nM | 1.6 nM | 6.8 nM | 12.3 nM |
| CC[C@@]1(O)C(=O)OCc2c1cc1n(c2=O)Cc2c-1nc1cc(F)c(C)cc1c2[C@H](C)N1CCNCC1 [Example 41a] | 5.12 nM | 28.6 nM | 100 nM |  |  |  |
| CC[C@@]1(O)C(=O)OCc2c1cc1n(c2=O)Cc2c-1nc1ccccc1c2[C@H](C)N [Example 4] | 16.3 nM | 10.2 nM | 280 nM |  |  |  |
| CC[C@@]1(O)C(=O)OCc2c1cc1n(c2=O)Cc2c-1nc1cc(F)c(C)cc1c2[C@H](C)NCCO [Example 25] | 10.2 nM | 30.2 nM | 261 nM |  |  |  |
| CC[C@@]1(O)C(=O)OCc2c1cc1n(c2=O)Cc2c-1nc1cc(F)c(C)cc1c2[C@H]1CCN1 [Example 38b] | 0.65 nM | 2 nM | 6.2 nM |  |  |  |
| CC[C@@]1(O)C(=O)OCc2c1cc1n(c2=O)Cc2c-1nc1cc(F)c(C)cc1c2[C@H](C)NC(=O)[C@@H](O)C(F)(F)F [Example 19] | 15.3 nM | 15.2 nM | 261 nM |  |  |  |
| CC[C@@]1(O)C(=O)OCc2c1cc1n(c2=O)Cc2c-1nc1ccc(O)cc1c2C(C)O (some centres unmarked) [Example 12] | 59.3 nM | 50.3 nM | 1200 nM |  |  |  |
| CC[C@@]1(O)C(=O)OCc2c1cc1n(c2=O)Cc2c-1nc1cc(F)c(C)cc1c2[C@H](C)NC(=O)[C@@H](C)O [Example 15] | 4.2 nM | 10.6 nM | 141 nM |  |  |  |
| CC[C@@]1(O)C(=O)OCc2c1cc1n(c2=O)Cc2c-1nc1ccccc1c2[C@@H](C)N [Example 3] | 11.2 nM | 15.5 nM | 120 nM |  |  |  |
| CC[C@@]1(O)C(=O)OCc2c1cc1n(c2=O)Cc2c-1nc1cc(F)c(C)cc1c2[C@@H](N)C(F)(F)F [Example 40a] | 4.12 nM | 6.6 nM | 50 nM |  |  |  |
| CC[C@@]1(O)C(=O)OCc2c1cc1n(c2=O)Cc2c-1nc1cc(F)c(C)cc1c2[C@H](C)NC(=O)[C@H](C)O [Example 14] | 3.8 nM | 8.3 nM | 88.6 nM |  |  |  |
| CC[C@H](N)c1c2c(nc3ccccc13)-c1cc3c(c(=O)n1C2)COC(=O)[C@]3(O)CC [Example 9] | 25.3 nM | 25.2 nM | 310 nM |  |  |  |
| CC[C@@]1(O)C(=O)OCc2c1cc1n(c2=O)Cc2c-1nc1cc(F)c(C)cc1c2[C@H](C)[N+](C)(C)C [Example 24] | 6.6 nM | 10.2 nM | 80.1 nM |  |  |  |
| CC[C@@]1(O)C(=O)OCc2c1cc1n(c2=O)Cc2c-1nc1cc(F)c(C)cc1c2[C@@H](N)CO [Example 39a] | 2.12 nM | 9.8 nM | 25.9 nM |  |  |  |
| CC[C@@]1(O)C(=O)OCc2c1cc1n(c2=O)Cc2c-1nc1cc(F)c(C)cc1c2[C@H](C)N [Example 2] | 2.3 nM | 2.6 nM | 15.7 nM |  |  |  |
| CC[C@@]1(O)C(=O)OCc2c1cc1n(c2=O)Cc2c-1nc1cc(F)c(C(F)(F)F)cc1c2[C@H](C)N [Example 34a] | 4.37 nM | 9.6 nM | 11.6 nM |  |  |  |
| CC[C@@]1(O)C(=O)OCc2c1cc1n(c2=O)Cc2c-1nc1cc(F)c(F)cc1c2[C@@H](C)N [Example 33b] | 0.85 nM | 8.5 nM | 24.3 nM |  |  |  |
| CC[C@@]1(O)C(=O)OCc2c1cc1n(c2=O)Cc2c-1nc1ccc(C(F)F)cc1c2[C@@H](C)N [Example 32b] | 1.85 nM | 5.5 nM | 20.2 nM |  |  |  |
| CC[C@@]1(O)C(=O)OCc2c1cc1n(c2=O)Cc2cc3ccccc3nc2-1 [Camptothecin] | 10.2 nM | 42.2 nM |  |  |  |  |
